Results reported in patent US7732434B2, “Macrocyclic acyl guanidines as beta-secretase inhibitors” (Bristol-Myers Squibb Company, priority 2007, dated 2010).
Read-outs that look alike come from different tables or passages of the source.

Key:
BACE1 enzyme = target: T1, BACE1 enzyme (Homo sapiens, UniProt P56817); assay: Radioligand displacement assay with a radiolabeled BACE inhibitor, HEK293-9B.A1 cell homogenate; assay type: binding; settings: displacement of 1 nM radioligand, HEK293-9B.A1 homogenate, pH 5.0, 1.5 hr at 25° C.; read-out: Activity Rating (activity based on IC50 values)
T1 construct: The HEK293-9B.A1 cell line, which overexpresses the BACE1 enzyme, was derived from HEK293 cells; endogenous in cells; washed 48,000 x g pellet of cell homogenate
Protocol: Radioligand displacement assays with a radiolabeled BACE inhibitor (WO 2004 013098, compound 3, where the methoxy group is substituted for C(^3H)3) were carried out using standard methods (Keen, M. (1999) in Receptor Binding Techniques (Walker, J. M. ed) p. 106Humana Press, Totowa, N.J.). The HEK293-9B.A1 cell line, which overexpresses the BACE1 enzyme, was derived from HEK293 cells (Simmons, N. L. (1990) A cultured human renal epithelioid cell line responsive to vasoactive intestinal peptide. Exp. Physiol. 75:309-19.) by RAGE™ (Harrington, J. J. et al. (2001) Creation of genome-wide protein expression libraries using random activation of gene expression. Nat. Biotechnol. 19:440-5.; U.S. Pat. Nos. 6,410,266 and 6,361,972). T225 flask cultures of HEK293-9B.A1 were grown to 80% confluency in DMEM supplemented with 2 mM L-glutamine, 10 μg/ml penicillin, 10 μg/ml streptomycin, 3 μg/ml puromycin, 100 nM methotrexate, and 10% fetal bovine serum (Invitrogen, Carlsbad, Calif.), harvested, and resuspended at 2×10^8 cells per 10 ml of lysis buffer consisting of 50 mM HEPES pH 7.0 containing a protease inhibitor cocktail of AEBSF 104 μM, aprotinin 80 nM, leupeptin 2 μM, bestatin 4 μM, pepstatin A 1.5 μM, and E-64 1.4 μM (0.1% of protease inhibitor cocktail P8340, Sigma-Aldrich, St. Louis, Mo.) at 4° C. The resuspended cells were homogenized using a Polytron (Brinkman, Westbury, N.Y.) at setting 6 for 10 sec., then centrifuged at 48,000×g for 10 min. The resulting pellet was washed by repeating the resuspension, homogenization and centrifugation steps. The final pellet was resuspended in buffer at 4° C. to yield a total protein concentration of 5 mg/ml, then aliquots were frozen in liquid nitrogen for further storage at −70° C. Immediately before carrying out a binding assay, an aliquot of cell homogenate was thawed and diluted to a concentration of 100 μg/ml in assay buffer consisting of 50 mM HEPES pH 5.0 and 0.1% CHAPSO. Assays were initiated in polypropylene 96-well plates (Costar, Cambridge, Mass.) by the addition of 200 μl of cell homogenate to 50 μl of assay buffer containing 1 nM radioligand (WO 2004 013098, compound 3, where the methoxy group is substituted for C(^3H)3: 80 Ci/mMol) and various concentrations of unlabelled compounds, and incubated for 1.5 hr. at 25° C. Separation of bound from free radioligand was by filtration on GFF glass fiber filters (Innotech Biosystems International, Lansing, Mich.) using an Innotech cell harvester. Filters were washed three times with 0.3 ml of phosphate buffered saline pH 7.0 at 4° C. and assessed for radioactivity using a Wallac 1450 Microbeta liquid scintillation counter (PerkinElmer, Boston, Mass.). Ki values of competing compounds were derived through Cheng-Prussoff correction of IC50 values calculated using XLfit (IDBS, Guildford, UK).

[1] = rcm bond, 1,2-dichloroethane

T1 sequence (P56817 46-501): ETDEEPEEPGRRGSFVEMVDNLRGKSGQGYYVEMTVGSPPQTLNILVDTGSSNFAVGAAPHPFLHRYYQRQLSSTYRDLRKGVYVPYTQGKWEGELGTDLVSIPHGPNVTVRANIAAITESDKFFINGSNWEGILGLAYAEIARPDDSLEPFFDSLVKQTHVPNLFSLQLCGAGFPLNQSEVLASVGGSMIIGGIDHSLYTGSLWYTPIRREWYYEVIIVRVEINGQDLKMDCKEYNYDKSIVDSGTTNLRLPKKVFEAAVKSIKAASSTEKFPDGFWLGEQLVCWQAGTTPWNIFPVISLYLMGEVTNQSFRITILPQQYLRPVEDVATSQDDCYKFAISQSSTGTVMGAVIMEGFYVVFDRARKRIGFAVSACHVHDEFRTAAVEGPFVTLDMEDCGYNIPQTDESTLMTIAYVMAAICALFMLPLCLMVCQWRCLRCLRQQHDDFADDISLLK

Row | SMILES | IC50 (BACE1 enzyme) | further results
1 | Cc1onc2c1C(=O)/N=C(\N)NCc1cc(Cl)c(c(Cl)c1)NC(=O)CNCC/C=C/COc1ccc-2cc1 [Example 2, (22E)-9-Amino-14,31-dichloro-5-methyl-4,25-dioxa-3,8,10,16,19-pentaazatetracyclo[24.2.2.2^12,15.0^2,6]dotriaconta-1(28),2,5,8,12,14,22,26,29,31-decaene-7,17-dione] | > 50 nM | –
2 | Cc1onc2c1C(=O)/N=C(\N)NCc1cc(Cl)c(c(Cl)c1)NC(=O)CNCCCC/C=C\COc1ccc-2cc1 [Example 7, (24Z)-9-Amino-14,33-dichloro-5-methyl-4,27-dioxa-3,8,10,16,19-pentaazatetracyclo[26.2.2.2^12,15.0^2,6]tetratriaconta-1(30),2,5,8,12,14,24,28,31,33-decaene-7,17-dione] | < 5 nM | –
3 | Cc1onc2c1C(=O)N=C(N)NCc1ccc(c(Cl)c1)NC(=O)CNCCC/C=C\COc1ccc-2cc1 [Example 11, (23Z)-9-Amino-14-chloro-5-methyl-4,26-dioxa-3,8,10,16,19-pentaazatetracyclo-[25.2.2.2^12,5.0^2,6]tritriaconta-1(29),2,5,8,12,14,23,27,30,32-decaene-7,17-dione] | < 5 nM | –
4 | Cc1snc2c1C(=O)/N=C(\N)NCc1cc(Cl)c(c(Cl)c1)NC(=O)CNCC/C=C\COc1ccc-2cc1 [Example 8, (22Z)-9-Amino-14,31-dichloro-5-methyl-25-oxa-4-thia-3,8,10,16,19-pentaazatetracyclo[24.2.2.2^12,15.0^2,6]dotriaconta-1(28),2,5,8,12,14,22,26,29,31-decaene-7,17-dione] | < 5 nM | –
5 | Cc1onc2c1C(=O)N=C(NC(=O)OC(C)(C)C)NCc1cc(Cl)c(c(Cl)c1)NC(=O)CN(C(=O)OC(C)(C)C)CCCCC=CCOc1ccc-2cc1 (mixture of isomers) | – | ring closure, yield of all isomers ([1]; from C=CCCCCN(CC(=O)Nc1c(Cl)cc(CN/C(=N/C(=O)c2c(-c3ccc(OCC=C)cc3)noc2C)NC(=O)OC(C)(C)C)cc1Cl)C(=O)OC(C)(C)C, Grubbs Catalyst 2nd Generation, 3.71 mM, 45.0 °C, 2.0 h): 64.9%
6 | Cc1onc2c1C(=O)/N=C(\N)NCc1ccc(cc1)NC(=O)CNCCC/C=C\COc1ccc-2cc1 [Example 10, (23Z)-9-Amino-5-methyl-4,26-dioxa-3,8,10,16,19-pentaazatetracyclo-[25.2.2.2^12,15.0^2,6]tritriaconta-1(29),2,5,8,12,14,23,27,30,32-decaene-7,17-dione] | < 5 nM | –
7 | Cc1snc2c1C(=O)/N=C(\N)NCc1cc(Cl)c(c(Cl)c1)NC(=O)CNCCCCCOc1ccc-2cc1 [Example 9, 9-Amino-14,31-dichloro-5-methyl-25-oxa-4-thia-3,8,10,16,19-pentaazatetracyclo[24.2.2.2^12,15.0^2,6]dotriaconta-1(28),2,5,8,12,14,26,29,31-nonaene-7,17-dione] | < 5 nM | –
8 | Cc1snc2c1C(=O)/N=C(\N)NCc1cc(Cl)c(c(Cl)c1)NC(=O)CN(Cc1ccccc1)CCCC=CCOc1ccc-2cc1 [Example 6, 9-Amino-19-benzyl-14,32-dichloro-5-methyl-26-oxa-4-thia-3,8,10,16,19-pentaazatetracyclo[25.2.2.2^12,15.0^2,6]tritriaconta-1(29),2,5,8,12,14,23,27,30,32-decaene-7,17-dione] | 5 to 50 nM | –
9 | Cc1onc2c1C(=O)N=C(NC(=O)OC(C)(C)C)NCc1cc(Cl)c(c(Cl)c1)NC(=O)CN(C(=O)OC(C)(C)C)CC=CCOc1ccc-2cc1 | – | ring closure, yield of all isomers ([1]; from C=CCOc1ccc(-c2noc(C)c2C(=O)/N=C(/NCc2cc(Cl)c(NC(=O)CN(CC=C)C(=O)OC(C)(C)C)c(Cl)c2)NC(=O)OC(C)(C)C)cc1, Grubbs Catalyst 2nd Generation, 5.84 mM, 45.0 °C, 2.0 h): 53%
10 | Cc1snc2c1C(=O)/N=C(\N)NCc1cc(Cl)c(c(Cl)c1)NC(=O)CNCCCCCCOc1ccc-2cc1 [Example 5, 9-Amino-14,32-dichloro-5-methyl-26-oxa-4-thia-3,8,10,16,19-pentaazatetracyclo[25.2.2.2^12,15.0^2,6]tritriaconta-1(29),2,5,8,12,14,27,30,32-nonaene-7,17-dione] | 5 to 50 nM | –
11 | Cc1onc2c1C(=O)/N=C(\N)NCc1cc(Cl)c(c(Cl)c1)NC(=O)CNCCC/C=C\COc1ccc-2cc1 [Example 3, 9-Amino-14,32-dichloro-5-methyl-4,26-dioxa-3,8,10,16,19-pentaazatetracyclo-[25.2.2.2^12,15.0^2,6]tritriaconta-1(29),2,5,8,12,14,23,27,30,32-decaene-7,17-dione] | 5 to 50 nM | –
12 | Cc1snc2c1C(=O)N=C(NC(=O)OC(C)(C)C)NCc1cc(Cl)c(c(Cl)c1)NC(=O)CN(C(=O)OC(C)(C)C)CCCC=CCOc1ccc-2cc1 | – | ring closure, yield of all isomers ([1]; from C=CCCCN(CC(=O)Nc1c(Cl)cc(CN/C(=N/C(=O)c2c(-c3ccc(OCC=C)cc3)nsc2C)NC(=O)OC(C)(C)C)cc1Cl)C(=O)OC(C)(C)C, Grubbs Catalyst 1st Generation, 3.04 mM, 70.0 °C, 6.0 h): 68%
13 | Cc1onc2c1C(=O)/N=C(\N)NCc1cc(Cl)c(c(Cl)c1)NC(=O)CNCC=CCOc1ccc-2cc1 [Example 1, 9-Amino-14,30-dichloro-5-methyl-4,24-dioxa-3,8,10,16,19-pentaazatetracyclo-[23.2.2.2^12,15.0^2,6]hentriaconta-1(27),2,5,8,12,14,21,25,28,30-decaene-7,17-dione] | > 50 nM | –
14 | Cc1onc2c1C(=O)N=C(NC(=O)OC(C)(C)C)NCc1cc(Cl)c(c(Cl)c1)NC(=O)CN(C(=O)OC(C)(C)C)CCCC=CCOc1ccc-2cc1 | – | ring closure, yield of all isomers ([1]; from C=CCCCN(CC(=O)Nc1c(Cl)cc(CN/C(=N/C(=O)c2c(-c3ccc(OCC=C)cc3)noc2C)NC(=O)OC(C)(C)C)cc1Cl)C(=O)OC(C)(C)C, Grubbs Catalyst 2nd Generation, 3.94 mM, 40.0 °C, 2.0 h): 69.9%
15 | Cc1snc2c1C(=O)/N=C(\N)NCc1cc(Cl)c(c(Cl)c1)NC(=O)CNCCCC=CCOc1ccc-2cc1 [Example 4, 9-Amino-14,32-dichloro-5-methyl-26-oxa-4-thia-3,8,10,16,19-pentaazatetracyclo[25.2.2.2^12,15.0^2,6]tritriaconta-1(29),2,5,8,12,14,23,27,30,32-decaene-7,17-dione] | 5 to 50 nM | –
